# “Also recorded” adds a separate entry of the source. Like-named read-outs stand apart in the source and are kept apart here. Non-standard residues stand in square brackets, D forms with d. Residues, ends and D or L forms follow the SMILES beside them. *: point of attachment. Sta = CC(C)C[C@H](N)[C@@H](O)CC(=O)O; Isovaleryl = CC(C)CC(=O)*
# What was measured:
# [1] = tested on: dissociated cerebral cortical cultures; type: cell-based, rat
# [2] = tested on: component II of the ADNF I complex; test: Blockade of component II protease activity in cell-free protease assay; type: biochemical; conditions: 10 μl of pepstatin stock (1 mg/ml methanol, diluted 1:100)
# Protocol: FIG. 28. A time course of component II (see FIGS. 26 and 27) in a cell-free protease assay using Bz-Arg-Gly-Phe-Phe-Pro-MβNA, HCl (Cathepsin D substrate). The conditions of the assay are as follows: 10 μl of substrate (5 mg dissolved in 100 μl of DMSO (dimethyl sulfoxide), diluted to 1 ml of water), 10 μl of 10 mM CaCl2; 50 μl of component II (10^−8 dilution of the preparation characterized in FIGS. 26 and 27); and 30 μl of buffer (0.5 M dibasic phosphate, pH 7.8). For this assay, buffer, enzyme, calcium were added to 96 well culture trays. Based on glycoprotein alpha-1 acid standards on NCHO capillary, the optimum protease activity is observed at 1 fM amounts of components II.
# FIG. 29. […] In culture wells treated with pepstatin, 10 μl of the stock solution (1 mg dissolved in 1 ml of methanol, diluted 1:100 with water) was added. In control wells, an addition 10 ul of methanol/water (1:100 dilution in water) alone was added. Fluorescence changes indicative of peptide subtract cleavage were monitored as described in FIG. 28.
# [3] = tested on: 14 kDa purified ADNF I complex; type: cell-based; conditions: pre-treatment of ADNF I, 1 μM TTX; for Effect on survival-promoting peak of component II (10^−8 dilution): 1 μM pepstatin A or 10 μg/ml E-64; for Effect on survival-promoting peak of component I (10^−12 dilution) / Effect on survival-promoting peak of component III (10^−5 dilution): 1 μM pepstatin A, 10 μg/ml E-64 or 0.1 mM subtilisin V inhibitor
Compound,Survival-promoting activity of digest peptide fractions (neuronal cell counts) [1],Effect on survival-promoting peak of component II (10^−8 dilution) [3],Effect on survival-promoting peak of component I (10^−12 dilution) [3],Effect on survival-promoting peak of component III (10^−5 dilution) [3],further results
SESSGTSELLTR,Significant increases in neuronal cell counts,,,,
CC(C)CC(=O)N[C@H](C(=O)N[C@H](C(=O)N[C@@H](CC(C)C)[C@@H](O)CC(=O)N[C@@H](C)C(=O)N[C@@H](CC(C)C)[C@@H](O)CC(=O)O)C(C)C)C(C)C [Pepstatin A] (Isovaleryl-VV[Sta]A[Sta]-OH),,prevented,small decrease,not affected,Effect on component II-mediated increases in protease activity [2]: prevent the component II-mediated increases in protease activity; Effect on survival-promoting peak of component II (10^−8 dilution) ([3]; listed as pepstatin A): blocked; Effect on survival-promoting peak of component II (10^−8 dilution) ([3]; listed as peptstatin A): inhibited
NNSTTYAPISANVSTALGSTAALPTAAGPV,Significant increases in neuronal cell counts,,,,Another peak of activity (concentration) [1]: 10^−8 M
"C[C@H](NC(=O)OC(C)(C)C)C(=O)N1CCC[C@H]1C(=O)N[C@@H](Cc1ccccc1)C(=O)NOC(=O)c1ccc(Cl)cc1 [subtilisin V inhibitor, Boc-Ala-Pro-Phe-NHO-Bz-pCl]",,,enhanced,enhanced,
CC(C)C[C@H](NC(=O)[C@H]1O[C@@H]1C(=O)O)C(=O)NCCCCN=C(N)N [E-64],,not diminished,inhibited; also recorded: prevented; also recorded: blocked,inhibited; also recorded: prevented; also recorded: blocked,
GPTADITLTK,Significant increases in neuronal cell counts,,,,

# Source: US7427590B2, “Neurothrophic components of the ADNF I complex” (The United States of America as represented by the …, priority 2001, dated 2008)
